Starred links: 1 amine or outer side, 2 acyl side, 3 side chain; linkers in the order of their positions; H or OH if unused. Non-standard residues stand in square brackets, D forms with d. Groups on a side chain read outwards from the residue. *: point of attachment. C18 diacid = O=C(O)CCCCCCCCCCCCCCCCC(=O)*; αMePhe(2-F) = C[C@](N)(Cc1ccccc1F)C(=O)O; γGlu = O=C(O)[C@H](CCC(=O)[*:2])N[*:1]; αMe4Pal = C[C@](N)(Cc1ccncc1)C(=O)O; αMeY = C[C@](N)(Cc1ccc(O)cc1)C(=O)O; 4Pal = N[C@@H](Cc1ccncc1)C(=O)O; αMeL = CC(C)C[C@](C)(N)C(=O)O; αMeS = C[C@](N)(CO)C(=O)O; Orn = NCCC[C@H](N)C(=O)O; AEEA = NCCOCCOCC(=O)O; Aib = CC(C)(N)C(=O)O
Assays:
hGIPR [1] = biological target: T1, hGIPR (Homo sapiens, UniProt P48546); experiment: Functional cAMP activity in the presence of 1% HSA; format: cell-based; settings: read-out: cAMP Rel EC50, hGIPR
T1 sequence (P48546 22-466): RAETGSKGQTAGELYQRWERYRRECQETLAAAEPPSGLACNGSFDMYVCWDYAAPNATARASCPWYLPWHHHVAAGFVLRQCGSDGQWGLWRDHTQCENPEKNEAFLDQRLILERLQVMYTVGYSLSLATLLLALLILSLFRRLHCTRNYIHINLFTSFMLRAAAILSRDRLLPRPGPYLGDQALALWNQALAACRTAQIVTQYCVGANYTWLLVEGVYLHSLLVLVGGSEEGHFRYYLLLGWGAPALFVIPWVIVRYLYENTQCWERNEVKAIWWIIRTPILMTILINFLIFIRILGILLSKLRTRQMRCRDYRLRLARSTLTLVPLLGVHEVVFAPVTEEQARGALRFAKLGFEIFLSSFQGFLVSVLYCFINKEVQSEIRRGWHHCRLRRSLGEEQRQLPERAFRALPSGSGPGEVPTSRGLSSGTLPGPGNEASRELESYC

hGLP-1R [2] = biological target: T2, hGLP-1R (Homo sapiens, UniProt P43220); experiment: Functional cAMP activity in the presence of 1% HSA; format: cell-based; settings: read-out: cAMP Rel EC50, hGLP-1R
T2 sequence (P43220 24-463): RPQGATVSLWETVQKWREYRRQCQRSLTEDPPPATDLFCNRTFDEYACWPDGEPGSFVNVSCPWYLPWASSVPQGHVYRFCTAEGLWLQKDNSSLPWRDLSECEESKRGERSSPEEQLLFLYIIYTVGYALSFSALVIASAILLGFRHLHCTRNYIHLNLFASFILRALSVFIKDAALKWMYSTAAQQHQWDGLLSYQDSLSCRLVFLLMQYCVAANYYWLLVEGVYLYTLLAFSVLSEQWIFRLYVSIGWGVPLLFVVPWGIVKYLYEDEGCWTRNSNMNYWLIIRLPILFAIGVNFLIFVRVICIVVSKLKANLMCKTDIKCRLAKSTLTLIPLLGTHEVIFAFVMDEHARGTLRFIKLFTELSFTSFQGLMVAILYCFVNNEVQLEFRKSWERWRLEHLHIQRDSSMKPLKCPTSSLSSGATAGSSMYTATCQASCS

human GcgR = human GcgR (Homo sapiens, UniProt P47871); experiment: Functional cAMP activity in the presence of 1% HSA; format: cell-based; settings: read-out: cAMP Rel EC50, hGcgR
Chain of human GcgR (P47871 26-477): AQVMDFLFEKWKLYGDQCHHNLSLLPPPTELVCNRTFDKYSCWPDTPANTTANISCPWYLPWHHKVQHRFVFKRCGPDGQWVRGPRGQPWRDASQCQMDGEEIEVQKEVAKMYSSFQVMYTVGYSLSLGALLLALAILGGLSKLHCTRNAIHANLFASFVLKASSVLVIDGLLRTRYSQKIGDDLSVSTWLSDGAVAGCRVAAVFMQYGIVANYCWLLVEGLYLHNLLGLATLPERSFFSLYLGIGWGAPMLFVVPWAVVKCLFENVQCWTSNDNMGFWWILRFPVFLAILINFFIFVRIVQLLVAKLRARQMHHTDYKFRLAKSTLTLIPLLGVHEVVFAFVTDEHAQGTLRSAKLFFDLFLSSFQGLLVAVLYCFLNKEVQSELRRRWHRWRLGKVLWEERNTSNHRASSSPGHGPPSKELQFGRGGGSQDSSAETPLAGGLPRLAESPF

hGIPR [3] = biological target: T1, hGIPR; experiment: Functional cAMP activation in the presence of 0.1% casein (no HSA); format: cell-based; settings: read-out: Relative cAMP EC50, hGIPR;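 as to Relative cAMP EC50, hGIPR: intracellular cAMP rise after 30 min at 37 °C read by HTRF against a standard curve, scaled between buffer alone (0%) and top control ligand concentration (100%), four-parameter fit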;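 as to Relative cAMP EC50, hGLP-1R: intracellular cAMP rise after 30 min at 37 °C read by HTRF, normalized between buffer only (0%) and maximal control ligand (100%), four-parameter variable-slope fit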;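 as to Relative cAMP EC50, hGcgR: intracellular cAMP rise after 30 min at 37 °C, read by HTRF against a cAMP standard curve, scaled from buffer only (0%) to maximal control ligand response (100%)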
hGLP-1R [4] = biological target: T2, hGLP-1R; experiment: as above; format: cell-based; settings: read-out: Relative cAMP EC50, hGLP-1R
hGcgR = hGcgR (Homo sapiens, UniProt P47871); experiment: as above; format: cell-based; settings: read-out: Relative cAMP EC50, hGcgR;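 also: intracellular cAMP rise after 30 min at 37 °C, read by HTRF against a cAMP standard curve, scaled from buffer only (0%) to maximal control ligand response (100%)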
Chain of hGcgR (P47871 26-477): as above

in vivo [5] = experiment: in vivo; set-up: species or system cynomolgus monkeys; settings: both sexes, cynomolgus monkey, iv, 10 nmol/kg
Description: (§1) A study is designed to evaluate the oral bioavailability of Example polypeptides in cynomolgus monkeys. […] Standards and controls are prepared in cynomolgus monkey plasma, and any dilutions required to bring samples into the quantitative range are also performed in control cynomolgus monkey plasma. To control assay variability, an internal standard (IS) is added to all the standards and samples. The Examples and IS are extracted from 100% monkey plasma (50 μL) by protein precipitation using isopropyl alcohol and methanol (50:50 v/v). The samples are then centrifuged (3000 rpm for 10 minutes) and the supernatant is transferred to a Siricco Protein Precipitation Plate. The samples are loaded on a Sep-Pak tC18 SPE microelution plate that is conditioned with 2% formic acid in acetonitrile and water. The compounds are then washed with 2% formic acid in water and eluted using 2% formic acid in acetonitrile into a plate containing 5× Invitrosol and 1% formic acid in water prior to injecting an aliquot (10 μL) on to Xselect CSH C18, 3.5 μm, 2.1×20 mm for LC/MS analysis.
Blood samples are collected over 504 hours. Plasma is harvested from blood samples by centrifugation and stored frozen (−70° C.) until analysis. Plasma concentrations of the molecules are detected using the bioanalytical method described above.

in vivo [6] = experiment: in vivo; set-up: species or system cynomolgus monkeys; settings: both sexes, cynomolgus monkey, po; for bioavailability: 10 mg; for AUC(0-inf) / CL/F / Cmax / Tmax / half-life: 300 mg
Description: as §1
[…] Blood samples are collected up to 504 hours post-dose. Plasma is harvested from blood samples by centrifugation and stored frozen (−70° C.) until analysis. Plasma concentrations of the molecules are detected using the bioanalytical method described above.

[7] = Body weight in diet-induced obese C57BL/6 mice; format: in vivo; settings: 10 nmol/kg SC QD, percent of starting weight, DIO mice, mean ± SEM n=5
Procedure, shortened: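 Daily weighing gave body weight as percent of starting value (mean±SEM, n=5) over 9-16 days of SC dosing, once daily or every 3 days, shortly before lights-off. Animals were weight-randomized male C57BL/6 DIO mice, 41-50 g, fed ad libitum on a calorie-rich diet.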

human GLP1-R = human GLP1-R (Homo sapiens, UniProt P43220); experiment: GLP1-R internalization assay in HEK293 cells; format: cell-based; settings: for EC50: HEK293 cells expressing SNAP-GLP-1R, read-out: GLP1R Internalization EC50; for Internalization % TOP: normalized to maximum concentration of GLP-1 (100%)
Chain of human GLP1-R (P43220 24-463): as the sequence (P43220 24-463) above

[8] = test system: Intestinal organoid from Göttingen minipig jejunum tissue, 2D monolayer; experiment: Cell based in vitro permeability (Papp) assay; format: in vitro ADME
Procedure, shortened: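 Papp calculated from LC/MS peptide levels in apical and basal compartments. Basal sampling at 20 min with C10 present, across monolayers grown from dissociated minipig jejunal organoids in transwells.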

[9] = Pepsin stability assay in simulated gastric fluid; format: in vitro ADME; settings: pH 1.2, % Intact (SD)
Description: A pepsin stability assay is utilized to determine the relative stability of Example polypeptides in a simulated gastric proteolytic environment. […] The relative amount of intact peptide is quantified by mass spectrometry (MS). […] The examples were dissolved in 50 mM Tris buffer pH 8.0 at a concentration of 10 mg/mL as a stock solution. Pepsin A was reconstituted in SGF at 10 mg/mL. […] The example peptide and pepsin solutions were then incubated at 37° C. in a shaking incubator set at 100 rpm. Samples (25 μL) were withdrawn at different time intervals and quenched with 100 mM ammonium bicarbonate pH 9 (50 μL) to stop proteolytic activity. All samples were centrifuged, and the supernatants were analyzed by LC/MS to determine the remaining intact peptide.

CC[C@H](C)[C@H](NC(=O)[C@H](CC(C)C)NC(=O)[C@](C)(Cc1ccc(O)cc1)NC(=O)[C@@H](CCC(=O)O)NC(=O)[C@@H](NC(=O)[C@H](Cc1ccccc1)NC(=O)[C@H](CCC(=O)O)NC(=O)[C@](C)(Cc1ccncc1)NC(=O)[C@H](CCC(N)=O)NC(=O)[C@H](C)NC(=O)[C@H](CCCCNC(=O)COCCOCCNC(=O)CC[C@H](NC(=O)CCCCCCCCCCCCCCCCC(=O)O)C(=O)O)NC(=O)[C@H](CCCN)NC(=O)[C@H](CC(=O)O)NC(=O)[C@H](CC(C)C)NC(=O)[C@](C)(CC(C)C)NC(=O)[C@@H](NC(=O)[C@](C)(CO)NC(=O)[C@H](Cc1ccncc1)NC(=O)[C@H](CC(=O)O)NC(=O)[C@H](CO)NC(=O)[C@@H](NC(=O)[C@](C)(Cc1ccccc1F)NC(=O)[C@@H](NC(=O)CNC(=O)[C@H](CCC(N)=O)NC(=O)C(C)(C)NC(=O)[C@@H](N)Cc1ccc(O)cc1)[C@@H](C)O)[C@@H](C)O)[C@@H](C)CC)[C@@H](C)CC)C(=O)N[C@@H](CCC(=O)O)C(=O)NCC(=O)NCC(=O)N1CCC[C@H]1C(=O)N[C@@H](CO)C(=O)N[C@@H](CO)C(=O)NCC(=O)N[C@@H](C)C(=O)N1CCC[C@H]1C(=O)N1CCC[C@H]1C(=O)N1CCC[C@H]1C(=O)N[C@@H](CO)C(=O)NCC(=O)N[C@@H](CO)C(N)=O [Example 699]
EC50 (hGIPR [1]): 0.566 nM
EC50 (hGLP-1R [2]): 25.3 nM
EC50 (human GcgR): 144 nM
EC50 (hGIPR [3]): 0.00663 nM
EC50 (hGLP-1R [4]): 0.196 nM
EC50 (hGcgR): 1.35 nM
AUC(0-inf) (in vivo [5]): 9.23 ± 1.64 µM·h
clearance (in vivo [5]): 0.0185 mL/min/kg
half-life (in vivo [5]): 50.8 ± 13.7 h
bioavailability (in vivo [6]): 1.3%
AUC(0-inf) (in vivo [6]): 7.15 µM·h
CL/F (in vivo [6]): 1.51 mL/min/kg
Cmax (in vivo [6]): 187 nM
Tmax (in vivo [6]): 2.75 h
half-life (in vivo [6]): 34.3 h
Body weight (%) ([7]; 7 days): 68.34 ± 0.85 %
Body weight (%) ([7]; 14 days): 56.85 ± 2.42 %
EC50 (human GLP1-R): 14.9 nM
Internalization % TOP (human GLP1-R): 102%
Relative Papp (Compared to internal standard) [8]: 0.51
remaining at 0.25 h, 0.4 mg/mL [9]: 97.9%

H-Y[Aib]QGT[αMePhe(2-F)]TSD[4Pal]SI[αMeL]LD[Orn]K([γGlu-γGlu-C18 diacid])AQ[αMe4Pal][Orn]FI[dE][αMeY]LIEGGPSSGEPPPETE-NH2 [Example 686]
EC50 (hGIPR [1]): 0.542 nM
EC50 (hGLP-1R [2]): 19.1 nM
EC50 (human GcgR): 169 nM
EC50 (hGIPR [3]): 0.00776 nM
EC50 (hGLP-1R [4]): 0.298 nM
EC50 (hGcgR): 2.43 nM
AUC(0-inf) (in vivo [5]): 7.04 ± 1.29 µM·h
clearance (in vivo [5]): 0.0243 mL/min/kg
half-life (in vivo [5]): 41.5 ± 2.35 h
bioavailability (in vivo [6]): 3.6%
AUC(0-inf) (in vivo [6]): 14.2 µM·h
CL/F (in vivo [6]): 2.93 mL/min/kg
Cmax (in vivo [6]): 249 nM
Tmax (in vivo [6]): 1 h
half-life (in vivo [6]): 44.6 h
Body weight (%) ([7]; 14 days): 72.73 ± 3.65 %
EC50 (human GLP1-R): 33.2 nM
Internalization % TOP (human GLP1-R): 101%
Relative Papp (Compared to internal standard) [8]: 0.60

H-Y[Aib]QGT[αMePhe(2-F)]TSD[4Pal][αMeS]ILLD[Orn]K([γGlu-γGlu-C18 diacid])AQ[Aib][Orn]FI[dE]YLIEGGPSSGEPPPSGTGE-NH2 [Example 548]
EC50 (hGIPR [1]): 3.48 nM
EC50 (hGLP-1R [2]): 38 nM
EC50 (human GcgR): 295 nM
EC50 (hGIPR [3]): 0.0547 nM
EC50 (hGLP-1R [4]): 0.478 nM
EC50 (hGcgR): 3.94 nM
AUC(0-inf) (in vivo [5]): 10.5 ± 1.58 µM·h
clearance (in vivo [5]): 0.0162 mL/min/kg
half-life (in vivo [5]): 53.2 ± 0.603 h
bioavailability (in vivo [6]): 0.6%
AUC(0-inf) (in vivo [6]): 3.58 µM·h
CL/F (in vivo [6]): 2.7 mL/min/kg
Cmax (in vivo [6]): 75.7 nM
Tmax (in vivo [6]): 1.5 h
half-life (in vivo [6]): 45 h
EC50 (human GLP1-R): 17.8 nM
Internalization % TOP (human GLP1-R): 109%

H-Y[Aib]QGT[αMePhe(2-F)]TSD[4Pal][αMeS]I[αMeL]LD[Orn]K([AEEA-γGlu-C18 diacid])AQ[αMe4Pal]EFI[dE][αMeY]LIEGGPSSGAPPPSGGGE-NH2 [Example 741]
EC50 (hGIPR [1]): 0.817 nM
EC50 (hGLP-1R [2]): 32.4 nM
EC50 (human GcgR): 200 nM
EC50 (hGIPR [3]): 0.00612 nM
EC50 (hGLP-1R [4]): 0.239 nM
EC50 (hGcgR): 2.01 nM
AUC(0-inf) (in vivo [5]): 9.55 ± 2.28 µM·h
clearance (in vivo [5]): 0.0182 mL/min/kg
half-life (in vivo [5]): 32.1 ± 4.22 h
bioavailability (in vivo [6]): 0.8%
AUC(0-inf) (in vivo [6]): 4.2 µM·h
CL/F (in vivo [6]): 2.28 mL/min/kg
Cmax (in vivo [6]): 95.8 nM
Tmax (in vivo [6]): 3.75 h
half-life (in vivo [6]): 58.1 h
Body weight (%) ([7]; 14 days): 59.42 ± 2.94 %
EC50 (human GLP1-R): 50.1 nM
remaining at 0.25 h, 0.4 mg/mL [9]: 111%
remaining at 0.5 h, 0.4 mg/mL [9]: 104%
remaining at 1 h, 0.4 mg/mL [9]: 105%

H-Y[Aib]QGT[αMePhe(2-F)]TSD[4Pal][αMeS]I[αMeL]LD[Orn]K([AEEA-γGlu-C18 diacid])AQ[αMe4Pal]EFI[dE][αMeY]LIEGGPSSGAPPPSGSE-NH2 [Example 712]
EC50 (hGIPR [1]): 0.584 nM
EC50 (hGLP-1R [2]): 30.8 nM
EC50 (human GcgR): 171 nM
EC50 (hGIPR [3]): 0.00689 nM
EC50 (hGLP-1R [4]): 0.258 nM
EC50 (hGcgR): 1.36 nM
AUC(0-inf) (in vivo [5]): 12.4 ± 0.862 µM·h
clearance (in vivo [5]): 0.0135 mL/min/kg
half-life (in vivo [5]): 54 ± 6.09 h
bioavailability (in vivo [6]): 0.9%
AUC(0-inf) (in vivo [6]): 6.18 µM·h
CL/F (in vivo [6]): 1.85 mL/min/kg
Cmax (in vivo [6]): 124 nM
Tmax (in vivo [6]): 3.75 h
half-life (in vivo [6]): 51.8 h
Body weight (%) ([7]; 7 days): 69.4 ± 0.60 %
Body weight (%) ([7]; 14 days): 63.61 ± 3.73 %
EC50 (human GLP1-R): 35.3 nM
Internalization % TOP (human GLP1-R): 109%
Relative Papp (Compared to internal standard) [8]: 0.60
remaining at 0.25 h, 0.4 mg/mL [9]: 92.4%
remaining at 0.5 h, 0.4 mg/mL [9]: 91.4%
remaining at 1 h, 0.4 mg/mL [9]: 93.5%

Source: US20240270821A1, “GIP/GLP1/GCG TRI-RECEPTOR AGONISTS AND USES THEREOF” (priority 2023, published 2024)
